Laboratory results reported in patent US12171229B2, “Heteroaryl-triazole and heteroaryl-tetrazole compounds as pesticides” (BAYER AKTIENGESELLSCHAFT, priority 2018, dated 2024).

How the values were obtained:
Type in all cases: in vivo
Spodoptera frugiperda = Spodoptera frugiperda spray test; conditions: 168 h, after 7 days, larvae on maize leaf sections
Procedure: Spodoptera frugiperda—Spray Test
(§1) To produce a suitable preparation of active compound, 1 part by weight of active compound is mixed with the stated amount of solvents and is diluted with water, containing an emulsifier concentration of 1000 ppm, to the desired concentration. Further test concentrations are prepared by dilution with emulsifier containing water.
Maize (Zea mays) leaf sections are sprayed with a preparation of the active ingredient of the desired concentration. Once dry, the leaf sections are infested with fall armyworm larvae (Spodoptera frugiperda).
After 7 days mortality in % is determined. 100% means all caterpillars have been killed and 0% means none of the caterpillars have been killed.

Boophilus microplus = Boophilus microplus injection test; conditions: Rhipicephalus microplus, 168 h; 20 μg/animal injected into the abdomen; adult engorged female ticks; egg deposition after 7 days; read-out: efficacy (infertile eggs)
Procedure: Boophilus Microplus—Injection Test Solvent: dimethyl sulfoxide To produce a suitable preparation of active compound, 10 mg of active compound are dissolved in 0.5 ml solvent, and the concentrate is diluted with solvent to the desired concentration. Five adult engorged female ticks (Boophilus microplus) are injected with 1 μl compound solution into the abdomen. The ticks are transferred into replica plates and incubated in a climate chamber. After 7 days egg deposition of fertile eggs is monitored. Eggs where fertility is not visible are stored in a climate chamber till hatching after about 42 days. An efficacy of 100% means all eggs are infertile; 0% means all eggs are fertile.

Diabrotica balteata = Diabrotica balteata spray test; conditions: Diabrotica balteata, in Triticum aestivum, 168 h, after 7 days, larvae on wheat seeds, read-out: efficacy (seedlings grown up); for pest or weed control at 80 µg/disc, 250 g/ha: 80 μg/well (=250 g/ha); for pest or weed control at 160 µg/disc, 500 g/ha: 160 μg/well (=500 g/ha)
Procedure: Diabrotica balteata—Spray Test [table] To produce a suitable preparation of active compound, 1 part by weight of active compound is mixed with the stated amount of solvent, and the concentrate is diluted with water, containing an emulsifier concentration of 1000 ppm, to the desired concentration. Further test concentrations are prepared by dilution with emulsifier containing water. Soaked wheat seeds (Triticum aestivum) are placed in a multiple well plate filled with agar and some water and are incubated for 1 day to germinate (5 seeds per well). The germinated wheat seeds are sprayed with a test solution containing the desired concentration of the active ingredient. Afterwards each unit is infected with 10-20 larvae of the banded cucumber beetle (Diabrotica balteata). After 7 days efficacy in % is determined. 100% means all the seedlings have grown up like in the untreated, uninfected control; 0% means none of the seedlings have grown.

Ctenocephalides felis = Ctenocephalides felis oral test; conditions: 48 h, 100 ppm in cattle blood, after 2 days, adult unfed cat fleas
Procedure: Ctenocephalides Felis—Oral Test
Solvent: dimethyl sulfoxide
To produce a suitable preparation of active compound, 10 mg of active compound are dissolved in 0.5 ml solvent, and the concentrate is diluted with cattle blood to the desired concentration.
Approximately 20 adult unfed cat fleas (Ctenocephalides felis) are placed in flea chambers. The blood chamber, sealed with parafilm on the bottom, are filled with cattle blood supplied with compound solution and placed on the gauze covered top of the flea chamber, so that the fleas are able to suck the blood. The blood chamber is heated to 37° C. whereas the flea chamber is kept at room temperature.
After 2 days mortality in % is determined. 100% means all the fleas have been killed; 0% means none of the fleas have been killed.

Myzus persicae [1] = test: Myzus persicae oral test; conditions: 120 h, 4 ppm, after 5 days
Procedure: Solvent: 100 parts by weight acetone
To produce a suitable preparation of active compound, 1 part by weight of active compound is mixed with the stated amount of solvent, and the concentrate is diluted with water to the desired concentration.
50 μl compound solution is filled in microtiter plates and 150 μl IPL41 insect medium (33%+15% sugar) is added to obtain a total volume of 200 μl per well. Afterwards the plates are sealed with parafilm through which a mixed population of the green peach aphid (Myzus persicae) can suck on the compound preparation.
(§2) After 5 days mortality in % is determined. 100% means all aphids have been killed and 0% means none of the aphids have been killed.

Nezara viridula = Nezara viridula spray test; conditions: 96 h, after 4 days, larvae on barley plants
Procedure: Nezara viridula—Spray Test
as §1, with “solvent,” for “solvents”, “and the concentrate” for “and”
Barley plants (Hordeum vulgare) infested with larvae of the southern green stink bug (Nezara viridula) are sprayed with a test solution containing the desired concentration of the active ingredient.
After 4 days mortality in % is determined. 100% means all the stink bugs have been killed: 0% means none of the stink bugs have been killed.

Myzus persicae [2] = test: Myzus persicae spray test; conditions: foliar, 120 h, after 5 days, Chinese cabbage leaf disks
Procedure: Myzus persicae—Spray Test
as §1
Chinese cabbage (Brassica pekinensis) leaf disks infected with all instars of the green peach aphid (Myzus persicae), are sprayed with a preparation of the active ingredient of the desired concentration.
as §2

[3] = system: Aedes aegypti strain MONHEIM; test: Aedes aegypti test (AEDSAE surface treatment & contact assay); conditions: 24 hours after contact, read-out: efficacy (mortality)
Procedure: Aedes Aegypti Test (AEDSAE Surface Treatment & Contact Assay)
Solvent: Aceton+2000 ppm rapeseed oil methyl ester (RME)
In order to produce a sufficient, active ingredient containing solution it is necessary to solve the test compound in the solvent-mix (acetone at 2 mg/ml/RME 2000 ppm). This solution is pipetted onto a glazed tile and after evaporation of the acetone, adult mosquitoes of the species Aedes aegypti strain MONHEIM are placed onto the dried surface. The exposure time is 30 minutes.
Mortality in percent (%) is determined 24 hours after contact of the insects to the treated surface. 100% mortality means that all tested insects are dead, whereas 0% means that no insect died.

| Structure (SMILES) | mortality at 100 g/ha (Spodoptera frugiperda) [%] | mortality at 500 g/ha (Spodoptera frugiperda) [%] | pest or weed control at 0.02 mg (Boophilus microplus) [%] | pest or weed control at 80 µg/disc, 250 g/ha (Diabrotica balteata) [%] | pest or weed control at 160 µg/disc, 500 g/ha (Diabrotica balteata) [%] | mortality at 100 ppm (Ctenocephalides felis) [%] | mortality at 4 ppm (Myzus persicae [1]) [%] | mortality at 100 g/ha (Nezara viridula) [%] | mortality at 500 g/ha (Nezara viridula) [%] | mortality at 100 g/ha (Myzus persicae [2]) [%] | mortality at 500 g/ha (Myzus persicae [2]) [%] | mortality at 4 mg/m2 ([3]; surface concentration 4 mg/m^2, exposure 30 minutes) [%] | mortality at 20 mg/m2 ([3]; surface concentration 20 mg/m^2, exposure 30 minutes) [%] |
| --- | --- | --- | --- | --- | --- | --- | --- | --- | --- | --- | --- | --- | --- |
| C[C@H](NC(=O)c1cc(Cl)cc(C(F)(F)F)c1)c1ncnn1-c1ccc(S(=O)(=O)C(F)(F)F)cn1 [Example I-027, 3-chloro-5-(trifluoromethyl)-N-[(1S)-1-(1-{5-[(trifluoromethyl)sulfonyl]pyridin-2-yl}-1H-1,2,4-triazol-5-yl)ethyl]benzamide] | 100 | 100 | 100 | 100 | 100 | 100 |  |  |  |  |  |  |  |
| C[C@H](NC(=O)c1cc(Cl)cc(C(F)(F)F)c1)c1ncnn1-c1ccc(NC(=O)c2ccc(F)cc2)cn1 [Example I-036] | 100 | 100 | 100 | 100 | 100 | 100 | 100 |  |  |  |  |  |  |
| Cc1cc(C(=O)N[C@@H](C)c2ncnn2-c2ccc(C#N)cn2)cc(C(F)(F)F)c1 [Example I-040] | 100 | 100 | 100 | 100 | 100 | 100 | 100 |  |  |  |  |  |  |
| C[C@H](NC(=O)c1cc(Cl)cc(C(F)(F)F)c1)c1ncnn1-c1ccc(-n2ccc(C(F)(F)F)n2)cn1 [Example I-045, 3-chloro-5-(trifluoromethyl)-N-[(1S)-1-(1-{5-[3-(trifluoromethyl)-1H-pyrazol-1-yl]pyridin-2-yl}-1H-1,2,4-triazol-5-yl)ethyl]benzamide] | 100 | 100 | 100 | 100 | 80 | 95 |  |  |  |  |  |  |  |
| C[C@H](NC(=O)c1cncc(Br)c1)c1ncnn1-c1ccc(C#N)cn1 [Example I-053] |  | 100 | 100 | 100 | 100 | 100 |  |  |  |  |  |  |  |
| C[C@H](NC(=O)c1cc(Cl)cc(C(F)(F)F)c1)c1ncnn1-c1ccc(NS(C)(=O)=O)cn1 [Example I-054] |  |  |  | 100 | 100 |  | 100 | 90 | 100 | 90 | 90 |  |  |
| C[C@H](NC(=O)c1cc(Cl)cc(C(F)(F)F)c1)c1ncnn1-c1ccc(S(C)(=O)=O)cn1 [Example I-062] | 100 | 100 | 100 | 100 | 100 | 100 |  |  | 100 |  |  |  |  |
| C[C@H](NC(=O)c1cncc(I)c1)c1ncnn1-c1ccc(C#N)cn1 [Example I-063] |  | 83 | 100 | 100 | 100 | 100 | 100 |  |  |  |  | 90 to 100 | 90 to 100 |
| CON=Cc1ccc(-n2ncnc2[C@H](C)NC(=O)c2cc(Cl)cc(C(F)(F)F)c2)nc1 [Example I-065, 3-chloro-N-[(1S)-1-(1-{5-[(methoxyimino)methyl]pyridin-2-yl}-1H-1,2,4-triazol-5-yl)ethyl]-5-(trifluoromethyl)benzamide] | 100 | 100 |  | 100 | 100 |  |  |  | 90 |  | 90 |  |  |
| C[C@H](NC(=O)c1cc(Cl)cc(C(F)(F)F)c1)c1ncnn1-c1ccc(NC(=O)C(F)(F)F)cn1 [Example I-072] | 83 | 100 |  | 100 | 100 |  | 90 |  |  |  |  |  |  |
| C[C@H](NC(=O)c1cc(Cl)cc(C(F)(F)F)c1)c1ncnn1-c1ccc(NC(=O)CC#N)cn1 [Example I-073] |  |  | 100 | 100 | 100 | 100 |  |  |  |  | 90 |  |  |
| C[C@H](NC(=O)c1cc(Cl)cc(C(F)(F)F)c1)c1ncnn1-c1ccc(C(N)=O)cn1 [Example I-100] | 100 | 100 |  | 100 | 100 | 100 | 100 |  | 100 |  |  |  |  |
| C[C@H](NC(=O)c1cc(Cl)cc(OC(F)(F)F)c1)c1ncnn1-c1ccc(N)cn1 [Example I-101] |  | 100 |  | 100 | 100 |  | 100 |  | 100 |  |  |  |  |
| C[C@H](NC(=O)c1cc(C(F)(F)F)cc(C(F)(F)F)c1)c1ncnn1-c1nccs1 [Example I-103] | 100 | 100 |  | 100 | 100 |  | 100 | 100 | 100 |  |  |  |  |
| C[C@H](NC(=O)c1cc(Cl)cc(C(F)(F)F)c1)c1ncnn1-c1ccc(C(=O)N(C)C2CC2)cn1 [Example I-110, 6-(5-{(1S)-1-[3-chloro-5-(trifluoromethyl)benzamido]ethyl}-1H-1,2,4-triazol-1-yl)-N-cyclopropyl-N-methylnicotinamide] | 100 | 100 |  |  | 100 |  |  |  | 90 | 90 | 100 |  |  |
| C[C@H](NC(=O)c1cc(Cl)cc(C(F)(F)F)c1)c1ncnn1-c1ccc(C(=O)NC2(C#N)CC2)cn1 [Example I-112] |  | 83 |  |  | 100 |  | 90 | 100 | 100 |  |  |  |  |
